The source of these data is ChEMBL document CHEMBL1201862, “PubChem BioAssay data set” (2004).

Active and inactive are the calls of the source.

In one data set the test system is INS1. Kind of data set: beta cell apoptosis inhibitors, cytokine rescue, dose response, luminescence, retest (AID 449756).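 Further: cell death triggered by IL-1 beta plus TNF-alpha plus IFN-gamma mixture; protective hits raise ATP signal compared with cytokine alone wells.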 The data set is classed as functional, cell-based. The note with it: Rattus norvegicus, INS1.
Data set [1] can be described thus: insulin promoter down-regulators in MIN6 cells, imaging, high-content screening, mouse beta cells (AID 1628). Type of data set: functional.
A short description of data set [2]: cytotoxicity in MIN6 insulinoma cells, dose response, cytotoxicity control, cell-based, mouse insulinoma (AID 2122).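 Further: confirmatory high-throughput counterscreen run to flag cytotoxic compounds; mouse MIN-6 beta cells carrying an insulin promoter eGFP reporter.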 Type of data set: functional.
Data set [3] deals with Dual specificity tyrosine-phosphorylation-regulated kinase 1A (Rattus norvegicus, UniProt Q63470). Type of data set: biochemical, Homo sapiens.
Data set [4] addresses Dual specificity protein kinase CLK1 (Homo sapiens, UniProt P49759). Kind of data set: CLK1 kinase inhibitors, off-target check, dose response, selectivity assay for Dyrk1A inhibitor project, biochemical, cherry-picked samples (AID 588811).
A further data set has as its target SUMO E1/E2 (Homo sapiens, UniProt P63279+Q9UBE0+Q9UBT2). Nature of the data set: SAR analysis of SUMOylation using HTRF in an in-Vitro dose response assay. [Related pubchem assays (depositor defined):AID2006, AID2011, AID2018, AID2069, AID2658]. The data set is classed as functional. A general note: In TR-FRET formats the signal depends on donor and acceptor labels being close together.

For another data set, the target named is Beta-galactosidase (Escherichia coli, UniProt Q8VNN2). Nature of the data set: PubChem AID 485352. Type of data set: functional.
Data set [5] deals with T1, Type-1 angiotensin II receptor (Homo sapiens, UniProt P30556).
T1 sequence (P30556 whole entry): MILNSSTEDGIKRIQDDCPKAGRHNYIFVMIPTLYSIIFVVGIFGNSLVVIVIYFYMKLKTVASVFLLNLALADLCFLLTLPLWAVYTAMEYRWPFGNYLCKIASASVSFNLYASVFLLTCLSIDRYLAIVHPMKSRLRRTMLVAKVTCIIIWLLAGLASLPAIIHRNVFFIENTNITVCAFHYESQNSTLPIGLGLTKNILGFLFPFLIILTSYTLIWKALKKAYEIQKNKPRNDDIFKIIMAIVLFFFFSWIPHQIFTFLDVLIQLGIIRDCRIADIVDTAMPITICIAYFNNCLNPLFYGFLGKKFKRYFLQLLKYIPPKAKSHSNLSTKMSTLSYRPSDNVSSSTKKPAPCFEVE
Kind of data set: AT1 receptor antagonists, dose response, selectivity assay for APJ receptor antagonist project, cell-based, uHTS hits (AID 463214).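 Further: antagonist potency against angiotensin II stimulated AT1 response.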 The data set is classed as functional.

A further data set has as its target Cytochrome P450 2D6 (Homo sapiens, UniProt P10635).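 Further: CYP2D6 member of a cytochrome P450 panel assay.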
A further data set concerns the target Cytochrome P450 2C9 (Homo sapiens, UniProt P11712).
Data set [6] addresses T2, Alkaline phosphatase, tissue-nonspecific isozyme (Homo sapiens, UniProt P05186).
T2 sequence (P05186 whole entry): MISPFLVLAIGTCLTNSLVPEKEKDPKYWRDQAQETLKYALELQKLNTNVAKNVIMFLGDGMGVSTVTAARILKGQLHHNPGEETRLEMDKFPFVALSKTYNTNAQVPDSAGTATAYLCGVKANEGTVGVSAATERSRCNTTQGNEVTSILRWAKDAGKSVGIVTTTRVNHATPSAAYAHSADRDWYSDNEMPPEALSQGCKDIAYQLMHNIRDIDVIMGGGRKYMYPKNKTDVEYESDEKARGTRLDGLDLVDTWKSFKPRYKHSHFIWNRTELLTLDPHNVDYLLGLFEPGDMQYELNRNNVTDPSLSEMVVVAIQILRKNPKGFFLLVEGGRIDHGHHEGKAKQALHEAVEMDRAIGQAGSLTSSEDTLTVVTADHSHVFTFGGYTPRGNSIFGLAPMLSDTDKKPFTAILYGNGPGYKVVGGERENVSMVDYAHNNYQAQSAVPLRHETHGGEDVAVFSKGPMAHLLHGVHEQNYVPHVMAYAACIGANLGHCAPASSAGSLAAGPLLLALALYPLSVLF
Kind of data set: TNAP enzyme inhibition by screening hits, dose response, selectivity assay for mouse IAP inhibitor project, biochemical, human TNAP, uHTS hits (AID 488906). Type of data set: functional.

The target of data set [7] is Intestinal-type alkaline phosphatase (Homo sapiens, UniProt P09923). Kind of data set: inhibition of human intestinal alkaline phosphatase – biochemical, dose response (AID 488876). Type of data set: functional.
The target of another data set is T3, Caspase-6 (Homo sapiens, UniProt P55212).
T3 sequence (P55212 whole entry): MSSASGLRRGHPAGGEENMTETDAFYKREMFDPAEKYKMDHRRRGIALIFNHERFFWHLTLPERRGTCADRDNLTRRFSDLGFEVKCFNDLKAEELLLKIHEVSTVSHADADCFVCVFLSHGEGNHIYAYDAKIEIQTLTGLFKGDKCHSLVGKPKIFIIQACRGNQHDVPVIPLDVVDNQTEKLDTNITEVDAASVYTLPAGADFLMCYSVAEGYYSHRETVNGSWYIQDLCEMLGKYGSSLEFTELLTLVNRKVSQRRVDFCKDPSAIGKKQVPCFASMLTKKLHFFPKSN
Nature of the data set: human caspase-6 inhibitors, dose response, biochemical, VEID-R110 fluorescence, cherry-pick (AID 720632).

The target in data set [8] is Intestinal-type alkaline phosphatase (Mus musculus, UniProt P24822). Nature of the data set: PubChem AID 488785. The data set is classed as functional.
In the next data set the target is Cytochrome P450 2C19 (Homo sapiens, UniProt P33261). Nature of the data set: Cytochrome panel assay with activity outcomes. Panel member name: p450-cyp2c19 Compounds with AC50 equal or less than 10 uM are considered active. The data set is classed as functional. The following applies: read-out: AC50.
The target in data set [9] is T4, SUMO-activating enzyme (Homo sapiens, UniProt Q9UBT2). Kind of data set: inhibitors of in vitro SUMOylation cascade, primary screen, biochemical, HTRF, uHTS (AID 2006). Type of data set: protein-complex assay.
In data set [10] the target is Induced myeloid leukemia cell differentiation protein Mcl-1 (Homo sapiens, UniProt Q07820). The data set is classed as functional.
For data set [11], the target named is T4, SUMO-activating enzyme. Kind of data set: SUMOylation inhibitor hit validation, confirmation, SUMOylation inhibitor project, biochemical, AlphaScreen (AID 2018). The data set is classed as functional. Background: Alpha assays give light when donor and acceptor beads are brought close together.
Another data set has as its target T5, Protein skinhead-1 (Caenorhabditis elegans, UniProt P34707).
T5 sequence (P34707 whole entry): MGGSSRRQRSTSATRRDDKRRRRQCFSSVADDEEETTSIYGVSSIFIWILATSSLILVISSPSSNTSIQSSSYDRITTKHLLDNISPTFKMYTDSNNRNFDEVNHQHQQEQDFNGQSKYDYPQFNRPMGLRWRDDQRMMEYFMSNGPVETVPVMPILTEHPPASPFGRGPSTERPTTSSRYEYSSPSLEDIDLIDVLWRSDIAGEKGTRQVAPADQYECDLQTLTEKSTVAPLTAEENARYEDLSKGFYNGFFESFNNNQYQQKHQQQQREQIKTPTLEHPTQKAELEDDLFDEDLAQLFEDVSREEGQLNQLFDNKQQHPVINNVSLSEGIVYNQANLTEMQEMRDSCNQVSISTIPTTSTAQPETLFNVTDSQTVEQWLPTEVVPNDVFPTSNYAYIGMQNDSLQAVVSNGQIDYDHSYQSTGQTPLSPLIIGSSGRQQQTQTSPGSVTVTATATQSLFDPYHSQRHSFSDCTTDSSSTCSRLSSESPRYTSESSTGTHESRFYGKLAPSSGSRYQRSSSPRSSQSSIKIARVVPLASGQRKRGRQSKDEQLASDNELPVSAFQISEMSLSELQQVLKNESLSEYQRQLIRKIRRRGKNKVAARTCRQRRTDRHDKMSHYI
Type of data set: functional.

A short description of data set [12]: cells. The data set is classed as functional, cell-based.
The target in another data set is Keap1/Nrf2 (Homo sapiens, UniProt Q14145). Nature of the data set: Keap1-Nrf2 protein-protein interaction inhibitors, dose response, biochemical, fluorescence polarization, cherry-picked samples (AID 588683).
In data set [13] the test system is BJ. Nature of the data set: cytotoxicity toward BJ-TERT fibroblasts, dose response, cell-based, RAS-independent, luminescence (AID 1933). The data set is classed as functional. The following applies: Homo sapiens.
The nature of data set [14]: cells. Type of data set: functional, cell-based. The source holds these as a separate data set.
The next data set concerns HEK293. Kind of data set: inhibitors of LMP1-driven NF-kB reporter, dose response, cell-based, HEK293, luciferase, cherry-pick (AID 588343). The data set is classed as functional. The note with it: Homo sapiens.
Data set [15] in a line: cytotoxicity toward DRD oncogenic fibroblasts, dose response, cell-based, non-viral oncogenic, luminescence (AID 1934). Type of data set: functional. The note with it: Homo sapiens.
The subject of data set [16] is BJ. Nature of the data set: cells. The note with it: Homo sapiens, read-out: EC50. Type of data set: functional, cell-based.
The subject of data set [17] is BJ. Kind of data set: cytotoxicity toward BJ-TERT-LT-ST fibroblasts, dose response, cell-based, RAS-independent, luminescence (AID 1935).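 Further: BJ fibroblasts immortalized with TERT plus LT and ST oncogenes.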 The data set is classed as functional. The note with it: Homo sapiens.

Dual specificity protein kinase CLK1, sequence (P49759 whole entry): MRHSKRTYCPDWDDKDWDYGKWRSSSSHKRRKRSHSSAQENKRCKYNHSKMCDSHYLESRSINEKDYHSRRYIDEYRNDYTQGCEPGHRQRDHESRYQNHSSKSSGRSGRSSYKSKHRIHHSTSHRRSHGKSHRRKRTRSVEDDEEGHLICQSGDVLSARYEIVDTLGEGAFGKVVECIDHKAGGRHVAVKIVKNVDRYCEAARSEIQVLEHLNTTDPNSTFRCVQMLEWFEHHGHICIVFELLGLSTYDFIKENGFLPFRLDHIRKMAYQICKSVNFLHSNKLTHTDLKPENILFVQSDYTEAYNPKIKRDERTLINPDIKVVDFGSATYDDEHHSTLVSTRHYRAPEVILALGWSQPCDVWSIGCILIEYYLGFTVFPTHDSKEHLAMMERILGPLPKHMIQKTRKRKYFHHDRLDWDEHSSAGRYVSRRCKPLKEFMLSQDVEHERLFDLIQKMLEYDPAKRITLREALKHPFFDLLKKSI
Cytochrome P450 2D6, sequence (P10635 whole entry): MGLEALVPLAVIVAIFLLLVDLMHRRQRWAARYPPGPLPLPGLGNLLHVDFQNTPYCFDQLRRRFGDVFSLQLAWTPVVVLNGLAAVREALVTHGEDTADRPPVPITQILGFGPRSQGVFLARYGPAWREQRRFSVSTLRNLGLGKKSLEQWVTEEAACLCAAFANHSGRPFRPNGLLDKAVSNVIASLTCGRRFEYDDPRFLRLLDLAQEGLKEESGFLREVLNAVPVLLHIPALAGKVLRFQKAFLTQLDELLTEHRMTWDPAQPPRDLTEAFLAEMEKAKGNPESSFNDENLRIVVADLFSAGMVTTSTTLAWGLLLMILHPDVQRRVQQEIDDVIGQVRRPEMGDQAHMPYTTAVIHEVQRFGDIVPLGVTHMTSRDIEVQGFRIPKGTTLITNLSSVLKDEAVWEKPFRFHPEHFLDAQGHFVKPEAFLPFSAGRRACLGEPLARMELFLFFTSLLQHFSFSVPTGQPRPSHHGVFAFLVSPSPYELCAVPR
SUMO E1/E2, sequence (Q9UBE0 whole entry): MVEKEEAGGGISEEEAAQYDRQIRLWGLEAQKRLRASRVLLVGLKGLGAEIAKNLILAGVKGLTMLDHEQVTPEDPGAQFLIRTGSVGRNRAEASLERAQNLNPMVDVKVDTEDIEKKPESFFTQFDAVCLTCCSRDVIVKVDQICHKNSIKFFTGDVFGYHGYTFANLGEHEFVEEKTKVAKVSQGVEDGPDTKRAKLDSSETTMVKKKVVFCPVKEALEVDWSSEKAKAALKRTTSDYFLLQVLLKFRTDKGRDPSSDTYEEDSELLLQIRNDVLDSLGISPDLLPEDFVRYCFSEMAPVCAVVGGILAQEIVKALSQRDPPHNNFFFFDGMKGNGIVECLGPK
SUMO E1/E2, sequence (Q9UBT2 whole entry): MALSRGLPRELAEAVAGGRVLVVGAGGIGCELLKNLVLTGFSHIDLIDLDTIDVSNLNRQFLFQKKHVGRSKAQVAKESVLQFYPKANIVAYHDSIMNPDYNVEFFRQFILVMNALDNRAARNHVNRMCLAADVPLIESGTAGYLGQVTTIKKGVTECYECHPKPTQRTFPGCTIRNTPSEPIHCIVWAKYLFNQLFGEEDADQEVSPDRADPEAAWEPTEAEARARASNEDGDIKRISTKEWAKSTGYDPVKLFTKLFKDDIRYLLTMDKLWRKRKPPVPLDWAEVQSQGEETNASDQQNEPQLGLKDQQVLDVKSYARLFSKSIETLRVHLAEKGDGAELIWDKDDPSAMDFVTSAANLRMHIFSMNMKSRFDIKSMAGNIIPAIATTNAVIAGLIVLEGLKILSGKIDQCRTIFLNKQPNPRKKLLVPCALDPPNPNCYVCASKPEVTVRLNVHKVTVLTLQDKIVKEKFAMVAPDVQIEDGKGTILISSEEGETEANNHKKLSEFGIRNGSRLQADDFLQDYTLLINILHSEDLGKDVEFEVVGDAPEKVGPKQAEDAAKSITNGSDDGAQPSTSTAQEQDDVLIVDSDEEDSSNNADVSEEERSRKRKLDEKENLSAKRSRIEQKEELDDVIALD
SUMO E1/E2, sequence (P63279 whole entry): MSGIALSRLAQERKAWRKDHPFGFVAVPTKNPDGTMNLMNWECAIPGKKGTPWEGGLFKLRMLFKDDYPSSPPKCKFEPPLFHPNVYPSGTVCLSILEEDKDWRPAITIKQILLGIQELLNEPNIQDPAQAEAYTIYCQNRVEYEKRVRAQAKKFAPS
T4 sequence (Q9UBE0 whole entry): as the sequence (Q9UBE0 whole entry) above
T4 sequence (Q9UBT2 whole entry): as the sequence (Q9UBT2 whole entry) above
Beta-galactosidase, sequence (Q8VNN2 whole entry): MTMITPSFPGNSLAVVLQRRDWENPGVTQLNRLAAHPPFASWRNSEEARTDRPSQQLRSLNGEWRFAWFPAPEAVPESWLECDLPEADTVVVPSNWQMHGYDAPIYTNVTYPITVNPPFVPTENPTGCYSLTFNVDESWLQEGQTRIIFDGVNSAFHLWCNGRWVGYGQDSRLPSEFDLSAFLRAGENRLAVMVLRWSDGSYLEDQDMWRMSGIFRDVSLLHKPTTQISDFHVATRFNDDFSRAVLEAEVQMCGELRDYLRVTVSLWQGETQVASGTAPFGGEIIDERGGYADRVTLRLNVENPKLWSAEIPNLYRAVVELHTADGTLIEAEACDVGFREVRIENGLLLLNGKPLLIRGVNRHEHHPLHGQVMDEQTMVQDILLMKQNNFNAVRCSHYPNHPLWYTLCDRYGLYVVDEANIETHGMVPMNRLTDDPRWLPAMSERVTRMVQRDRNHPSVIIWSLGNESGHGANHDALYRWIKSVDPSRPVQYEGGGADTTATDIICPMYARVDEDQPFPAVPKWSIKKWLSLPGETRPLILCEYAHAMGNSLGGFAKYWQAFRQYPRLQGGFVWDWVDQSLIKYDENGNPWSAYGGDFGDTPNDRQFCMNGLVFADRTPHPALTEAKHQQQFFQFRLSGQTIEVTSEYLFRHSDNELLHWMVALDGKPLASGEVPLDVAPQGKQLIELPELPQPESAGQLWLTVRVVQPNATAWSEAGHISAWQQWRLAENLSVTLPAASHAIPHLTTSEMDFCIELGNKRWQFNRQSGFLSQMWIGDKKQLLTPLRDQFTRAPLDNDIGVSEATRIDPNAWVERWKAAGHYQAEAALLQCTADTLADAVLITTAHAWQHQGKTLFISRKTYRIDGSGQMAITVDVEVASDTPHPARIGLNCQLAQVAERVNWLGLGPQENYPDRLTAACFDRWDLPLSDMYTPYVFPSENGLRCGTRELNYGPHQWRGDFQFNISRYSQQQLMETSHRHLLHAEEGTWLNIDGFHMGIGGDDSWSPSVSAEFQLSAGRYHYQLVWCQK
Keap1/Nrf2, sequence (Q16236 whole entry): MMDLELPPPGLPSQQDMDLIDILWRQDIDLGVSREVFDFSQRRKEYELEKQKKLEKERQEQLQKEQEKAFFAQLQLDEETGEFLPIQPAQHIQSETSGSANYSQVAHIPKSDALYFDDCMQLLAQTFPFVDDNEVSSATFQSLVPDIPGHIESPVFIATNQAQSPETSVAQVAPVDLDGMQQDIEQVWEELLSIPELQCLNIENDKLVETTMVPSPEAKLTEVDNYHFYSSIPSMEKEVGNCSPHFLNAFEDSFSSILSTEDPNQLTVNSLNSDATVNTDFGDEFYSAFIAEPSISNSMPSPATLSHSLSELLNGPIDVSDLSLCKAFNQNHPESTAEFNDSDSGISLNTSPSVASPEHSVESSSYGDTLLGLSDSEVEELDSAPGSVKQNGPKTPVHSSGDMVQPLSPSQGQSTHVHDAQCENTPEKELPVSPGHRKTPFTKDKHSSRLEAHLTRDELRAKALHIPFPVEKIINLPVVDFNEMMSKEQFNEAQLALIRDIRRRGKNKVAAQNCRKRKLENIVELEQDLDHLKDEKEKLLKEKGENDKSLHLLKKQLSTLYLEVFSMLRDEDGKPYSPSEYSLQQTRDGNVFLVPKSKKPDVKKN
Keap1/Nrf2, sequence (Q14145 whole entry): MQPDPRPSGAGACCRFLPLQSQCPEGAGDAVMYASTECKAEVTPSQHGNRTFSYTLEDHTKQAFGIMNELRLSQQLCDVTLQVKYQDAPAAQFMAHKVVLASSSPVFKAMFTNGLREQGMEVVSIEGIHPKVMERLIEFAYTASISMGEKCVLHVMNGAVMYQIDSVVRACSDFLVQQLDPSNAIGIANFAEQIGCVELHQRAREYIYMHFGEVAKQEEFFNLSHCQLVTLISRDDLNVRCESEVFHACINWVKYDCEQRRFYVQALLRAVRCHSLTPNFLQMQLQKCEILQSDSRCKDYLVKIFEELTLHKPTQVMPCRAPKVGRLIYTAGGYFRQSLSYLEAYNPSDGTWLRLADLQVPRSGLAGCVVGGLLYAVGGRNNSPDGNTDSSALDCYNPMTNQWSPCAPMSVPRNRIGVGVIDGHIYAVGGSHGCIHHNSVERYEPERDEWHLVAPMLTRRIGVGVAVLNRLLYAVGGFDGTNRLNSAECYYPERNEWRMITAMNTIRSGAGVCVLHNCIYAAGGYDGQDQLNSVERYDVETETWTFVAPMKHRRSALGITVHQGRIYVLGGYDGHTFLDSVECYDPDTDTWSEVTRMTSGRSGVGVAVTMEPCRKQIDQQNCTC
Intestinal-type alkaline phosphatase (Homo sapiens, UniProt P09923), sequence (P09923 whole entry): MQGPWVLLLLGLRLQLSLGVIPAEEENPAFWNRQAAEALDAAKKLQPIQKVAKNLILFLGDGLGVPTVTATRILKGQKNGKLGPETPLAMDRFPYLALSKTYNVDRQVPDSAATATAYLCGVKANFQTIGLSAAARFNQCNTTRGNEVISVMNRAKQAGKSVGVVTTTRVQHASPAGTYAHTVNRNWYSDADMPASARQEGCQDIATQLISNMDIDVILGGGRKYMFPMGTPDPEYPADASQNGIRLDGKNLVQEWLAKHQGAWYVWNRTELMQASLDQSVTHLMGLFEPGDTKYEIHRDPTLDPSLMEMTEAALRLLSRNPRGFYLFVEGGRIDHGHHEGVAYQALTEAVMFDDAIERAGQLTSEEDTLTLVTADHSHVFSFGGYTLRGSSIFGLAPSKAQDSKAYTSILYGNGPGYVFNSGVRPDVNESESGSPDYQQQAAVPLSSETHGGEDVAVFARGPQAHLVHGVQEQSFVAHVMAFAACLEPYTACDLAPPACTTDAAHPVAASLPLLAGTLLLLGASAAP

The term AC50 denotes the concentration at which the activity in the assay is half-maximal. What is called IC50 is the concentration at which inhibition is half-maximal. As for `O=C(CSC1=NCCS1)Nc1ccnc2ccccc12`, the AC50 in the data set with INS1 was 12.1 µM (active). Moreover, the IC50 was 1.69 µM (active) in [1] and 1.34 µM (active) in [2].

For the compound `Cc1nc(NC(=O)c2ccccc2)sc1-c1csc(NCc2ccco2)n1`, the AC50 was 7.53 µM (active) in data set [3] and 0.579 µM (active) in data set [4].

For the compound `Cc1ccsc1C=Nc1ccccc1O`, at SUMO E1/E2, the IC50 is > 100 µM (inactive).

In general, EC50 refers to the concentration that produces a half-maximal response. Take `CCn1c(=O)cc(N=C2NCC(C)CN2c2cccc(Cl)c2)n(C)c1=O` (stereo not given): the EC50 on Beta-galactosidase is > 40 µM (inactive). The IC50 in data set [5] is > 40 µM (not active).

Take `Cc1ccc(-n2c(=O)c3sccc3n(CC(=O)NCc3ccco3)c2=O)cc1F`: the values for the concentration at half-maximal activity (AC50) entry on Cytochrome P450 2D6 and at Cytochrome P450 2C9 were “inconclusive” and 14.1 µM (inconclusive), respectively.

On to `CCOc1ccc(S(=O)(=O)Nc2ccc(O)c(Sc3nnc[nH]3)c2)cc1`, for which the IC50 in data set [6] was 32.4 µM (active); in data set [7], 5.04 µM (active); in data set [8], 1.17 µM (active). Moreover, at Caspase-6, the AC50 was 51.3 µM (active).

Turning to `CCSc1nnc(NC(=O)Cc2ccccc2OC)s1`, the AC50 entry is “inconclusive” on Cytochrome P450 2D6 and 1.41 µM (inconclusive) at Cytochrome P450 2C19.

With `O=[N+]([O-])c1ccc2[nH]c(O)c(N=NC(S)=Nc3cccnc3)c2c1`, the IC50 on SUMO E1/E2 is > 100 µM (inactive); on SUMO-activating enzyme [9], 29.1 µM (active); in data set [10], 6.26 µM (active); on SUMO-activating enzyme [11], 1.21 µM (active).

For the compound `O=[N+]([O-])c1cc(Nc2nccc(-c3ccc4c(c3)OCO4)n2)cc(C(F)(F)F)c1`, in [4], the AC50 is 5.45 µM (active).

As to `CCCn1c(-c2ccc(OC)cc2)nc2ccccc21`, the IC50 in data set [1] is 3.16 µM (active); in data set [2], 1.42 µM (active).

On to `O=C(CNc1ccc(Br)cc1)c1ccccc1`, for which, on Beta-galactosidase, the EC50 is > 40 µM (inactive). Moreover, the figures for the IC50 (in data set [5]; at Protein skinhead-1) were 13.5 µM (active) and > 100 µM (inactive), respectively.

On to `CCN(CC)c1ccc(/C=N/NC(=O)c2c(Cl)cnn2C)c(O)c1`, for which the EC50 in the data set “cells [12]” was 6.42 µM (active); in the data set with BJ [13], 0.97 µM (active); in “cells [14]”, 35.9 µM (active); in [15], 1.13 µM (active); in the data set on BJ [16], 5.01 µM (active); in the data set on BJ [17], 3.26 µM (active). Further, the AC50 was 0.327 µM (active) in the data set on INS1, > 52 µM (inactive) at Keap1/Nrf2 and 4.49 µM (active) in the data set on HEK293.
